Experimental data published in PMC7023381, “Sulfonamide Inhibition Profile of the β-Carbonic Anhydrase from Malassezia restricta, An Opportunistic Pathogen Triggering Scalp Conditions” (Metabolites, 2020).
Like-named read-outs stand apart in the source and are kept apart here.

Molecular target: T1, MreCA (Malassezia restricta, UniProt A0A3G2S4B9)
T1 construct: gene can; recombinant from synthetic gene in pET100D-Topo, E. coli BL21(DE3) codon plus; N-terminal His6-tag fusion, 27 kDa on SDS-PAGE; no tag cleavage told
T1 sequence (A0A3G2S4B9 1-238): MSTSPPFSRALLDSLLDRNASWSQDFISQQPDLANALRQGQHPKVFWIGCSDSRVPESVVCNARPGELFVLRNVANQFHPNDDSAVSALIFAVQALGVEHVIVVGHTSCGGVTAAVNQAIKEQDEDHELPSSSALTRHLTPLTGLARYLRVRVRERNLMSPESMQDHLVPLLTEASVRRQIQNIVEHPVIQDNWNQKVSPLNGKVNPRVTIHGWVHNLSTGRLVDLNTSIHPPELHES
Experiment: stopped-flow CO2 hydrase assay
Format: biochemical

Row | Structure (SMILES) | Ki (read-out: MreCA) [µM] | Ki [µM]
1 | CCN[C@H]1CN(CCCOC)S(=O)(=O)c2sc(S(N)(=O)=O)cc21 [BRZ] | 0.7 | –
2 | NS(=O)(=O)c1nnc(NS(=O)(=O)c2ccccc2)s1 [BZA] | 7.15 | –
3 | Cc1ccc(-c2cc(C(F)(F)F)nn2-c2ccc(S(N)(=O)=O)cc2)cc1 [CLX] | 1.4 | –
4 | NS(=O)(=O)c1cc(Cl)c(Cl)c(S(N)(=O)=O)c1 [DCP] | 3.06 | –
5 | NC(N)=Nc1nc(CSCCC(N)=NS(N)(=O)=O)cs1 [FAM] | > 10 | –
6 | NS(=O)(=O)c1cc2c(cc1Cl)NCNS2(=O)=O [HCT] | 8.5 | –
7 | NS(=O)(=O)c1ccc(S(=O)(=O)Nc2cccc3c(Cl)c[nH]c23)cc1 [IND] | 0.87 | –
8 | CC(=O)N=c1sc(S(N)(=O)=O)nn1C [MZA] | 3.9 | –
9 | O=C1NS(=O)(=O)c2ccccc21 [SAC] | 6.2 | –
10 | CCN1CCCC1CNC(=O)c1cc(S(N)(=O)=O)ccc1OC (stereo not drawn) [SLP] | 4.85 | –
11 | NS(=O)(=O)c1ccc(N2CCCCS2(=O)=O)cc1 [SLT] | 0.67 | –
12 | CC1(C)O[C@@H]2[C@@H](CO[C@@]3(COS(N)(=O)=O)OC(C)(C)O[C@@H]23)O1 [TPM] | 3.83 | –
13 | Cc1onc(-c2ccccc2)c1-c1ccc(S(N)(=O)=O)cc1 [VLX] | 0.77 | –
14 | NS(=O)(=O)Cc1noc2ccccc12 [ZNS] | > 10 | –
15 | Nc1ccc(S(N)(=O)=O)cc1 [compound 2, 2] | 4.62 | –
16 | NS(=O)(=O)c1cccc(S(N)(=O)=O)c1 [compound 3, 3] | > 10 | –
17 | Cc1ccc(S(N)(=O)=O)cc1 [compound 4, 4] | 4.04 | –
18 | NCc1ccc(S(N)(=O)=O)cc1 [compound 5, 5] | > 10 | –

Row | Structure (SMILES) | Ki (read-out: MreCA) [µM] | Ki [µM]
19 | NCCc1ccc(S(N)(=O)=O)cc1 [compound 6, 6] | – | > 10
20 | Nc1ccc(S(N)(=O)=O)cc1F [compound 7, 7] | 4.59 | –
21 | Nc1ccc(S(N)(=O)=O)cc1Cl [compound 8, 8] | > 10 | –
22 | Nc1ccc(S(N)(=O)=O)cc1Br [compound 9, 9] | > 10 | –
23 | NS(=O)(=O)c1cc(Cl)cc(Cl)c1O [compound 10, 10] | > 10 | –
24 | Nc1cc(C(F)(F)F)c(S(N)(=O)=O)cc1S(N)(=O)=O [compound 11, 11] | 6.76 | –
25 | Nc1cc(Cl)c(S(N)(=O)=O)cc1S(N)(=O)=O [compound 12, 12] | > 10 | –
26 | Nc1nnc(S(N)(=O)=O)s1 [compound 13, 13] | > 10 | –
27 | Cn1nc(S(N)(=O)=O)sc1=N [compound 14, 14] | > 10 | –
28 | NS(=O)(=O)c1ccc(O)cc1 [compound 15, 15] | > 10 | –
29 | NS(=O)(=O)c1ccc(CO)cc1 [compound 16, 16] | 6.51 | –
30 | NS(=O)(=O)c1ccc(CCO)cc1 [compound 17, 17] | > 10 | –
31 | NS(=O)(=O)c1ccc(C(=O)O)cc1 [compound 18, 18] | > 10 | –
32 | Nc1nccc(Nc2ccc(S(N)(=O)=O)cc2)n1 [compound 19, 19] | 7.79 | –
33 | Nc1ccc(S(=O)(=O)Nc2nnc(S(N)(=O)=O)s2)cc1 [compound 20, 20] | 0.91 | –
34 | Nc1ccc(S(=O)(=O)Nc2ccc(S(N)(=O)=O)cc2)cc1 [compound 22, 22] | 3.74 | –
35 | Nc1ccc(S(=O)(=O)NCc2ccc(S(N)(=O)=O)cc2)cc1 [compound 23, 23] | > 10 | –
36 | Nc1ccc(S(=O)(=O)NCCc2ccc(S(N)(=O)=O)cc2)cc1 [compound 24, 24] | > 10 | –
